Experimental data taken from patent US12275731B2, “Azaindole inhibitors of wild-type and mutant forms of LRRK2” (DANA-FARBER CANCER INSTITUTE, INC., priority 2018, dated 2025).

Key:
Experiment in all cases: KinomeScan profiling
Assay type in all cases: binding
TGFBR2 = TGFBR2 (Homo sapiens, UniProt P37173); settings: TGFBR2, 1 μM; read-out: % control
Description: (§1) The kinase selectivity of inventive compounds 77, 96 and 101 was evaluated by KinomeScan®. KinomeScan® analysis was performed against a near comprehensive panel of 468 kinases. The control percentage (% control) for inventive compounds at 1 μM in DMSO was determined by Equation 1: % control=(inventive compound−positive control)/(negative control−positive control)×100%, Equation 1
(§2) wherein the positive control is a compound with a % control value of 0% relative light units (RLU), and the negative control (i.e., DMSO) has % control value of 100% RLU. The enzyme selectivity in the present invention is defined as follows: inventive compounds are considered active for an enzyme when the observed % control is less than 35% (<35%).

[1] = target: T1, TYK2(JH2domain-pseudokinase) (Homo sapiens, UniProt P29597); settings: read-out: % control
T1 construct: TYK2(JH2domain-pseudokinase)
Description: as §1, §2

PHKG1 = PHKG1 (Homo sapiens, UniProt Q16816); settings: PHKG1, 1 μM; read-out: % control
Description: as §1, §2

CAMK1 = CAMK1 (Homo sapiens, UniProt Q14012); settings: CAMK1, 1 μM; read-out: % control
Description: as §1, §2

HIPK3 = HIPK3 (Homo sapiens, UniProt Q9H422); settings: HIPK3, 1 μM; read-out: % control
Description: as §1, §2

PIP5K2C = target: T2, PIP5K2C (Homo sapiens, UniProt Q8TBX8); settings: read-out: % control
T2 construct: purchased KinomeScan® (panel service)
T2 sequence (Q8TBX8 1-421): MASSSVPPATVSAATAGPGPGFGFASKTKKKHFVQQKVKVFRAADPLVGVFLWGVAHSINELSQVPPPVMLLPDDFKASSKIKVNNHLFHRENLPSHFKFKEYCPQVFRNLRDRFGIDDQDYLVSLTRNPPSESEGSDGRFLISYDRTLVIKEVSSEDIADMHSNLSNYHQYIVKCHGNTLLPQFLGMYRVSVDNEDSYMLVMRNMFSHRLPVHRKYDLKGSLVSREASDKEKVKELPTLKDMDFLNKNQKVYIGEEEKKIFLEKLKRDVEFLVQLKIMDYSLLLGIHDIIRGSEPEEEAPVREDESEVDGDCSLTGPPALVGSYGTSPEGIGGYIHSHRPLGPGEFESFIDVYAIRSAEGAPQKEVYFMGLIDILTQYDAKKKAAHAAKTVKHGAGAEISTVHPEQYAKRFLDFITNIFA
Description: as §1, §2

FAK = FAK (Homo sapiens, UniProt Q05397); settings: read-out: % control
Description: as §1, §2

CAMK1B = CAMK1B (Homo sapiens, UniProt Q6P2M8); settings: read-out: % control
Description: as §1, §2

TBK1 = target: T3, TBK1 (Homo sapiens, UniProt Q9UHD2); settings: TBK1, 1 μM; read-out: % control
T3 sequence (Q9UHD2 1-729): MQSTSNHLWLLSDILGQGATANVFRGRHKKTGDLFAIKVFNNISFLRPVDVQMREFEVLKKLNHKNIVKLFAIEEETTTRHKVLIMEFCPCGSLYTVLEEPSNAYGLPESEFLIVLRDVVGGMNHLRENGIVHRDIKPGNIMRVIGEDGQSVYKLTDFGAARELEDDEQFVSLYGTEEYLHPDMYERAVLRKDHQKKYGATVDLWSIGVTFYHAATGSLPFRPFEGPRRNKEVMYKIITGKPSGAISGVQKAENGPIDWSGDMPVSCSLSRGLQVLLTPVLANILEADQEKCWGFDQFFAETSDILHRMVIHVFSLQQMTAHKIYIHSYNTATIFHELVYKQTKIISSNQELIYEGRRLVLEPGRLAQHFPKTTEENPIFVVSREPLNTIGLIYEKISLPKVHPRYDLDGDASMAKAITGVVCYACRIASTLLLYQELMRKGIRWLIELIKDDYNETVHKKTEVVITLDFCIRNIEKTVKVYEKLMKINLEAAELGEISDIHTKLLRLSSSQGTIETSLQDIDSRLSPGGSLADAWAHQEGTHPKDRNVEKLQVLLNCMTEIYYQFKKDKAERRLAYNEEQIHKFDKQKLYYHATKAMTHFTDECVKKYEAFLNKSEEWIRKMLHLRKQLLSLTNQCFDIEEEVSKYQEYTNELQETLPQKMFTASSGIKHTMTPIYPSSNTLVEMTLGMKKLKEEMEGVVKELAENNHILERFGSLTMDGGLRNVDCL
Description: as §1, §2

BMPR1B = target: T4, BMPR1B (Homo sapiens, UniProt O00238); settings: read-out: % control
T4 construct: purchased KinomeScan®
Description: as §1, §2

DYRK2 = target: T5, DYRK2 (Homo sapiens, UniProt Q92630); settings: DYRK2, 1 μM; read-out: % control
T5 sequence (Q92630 1-601): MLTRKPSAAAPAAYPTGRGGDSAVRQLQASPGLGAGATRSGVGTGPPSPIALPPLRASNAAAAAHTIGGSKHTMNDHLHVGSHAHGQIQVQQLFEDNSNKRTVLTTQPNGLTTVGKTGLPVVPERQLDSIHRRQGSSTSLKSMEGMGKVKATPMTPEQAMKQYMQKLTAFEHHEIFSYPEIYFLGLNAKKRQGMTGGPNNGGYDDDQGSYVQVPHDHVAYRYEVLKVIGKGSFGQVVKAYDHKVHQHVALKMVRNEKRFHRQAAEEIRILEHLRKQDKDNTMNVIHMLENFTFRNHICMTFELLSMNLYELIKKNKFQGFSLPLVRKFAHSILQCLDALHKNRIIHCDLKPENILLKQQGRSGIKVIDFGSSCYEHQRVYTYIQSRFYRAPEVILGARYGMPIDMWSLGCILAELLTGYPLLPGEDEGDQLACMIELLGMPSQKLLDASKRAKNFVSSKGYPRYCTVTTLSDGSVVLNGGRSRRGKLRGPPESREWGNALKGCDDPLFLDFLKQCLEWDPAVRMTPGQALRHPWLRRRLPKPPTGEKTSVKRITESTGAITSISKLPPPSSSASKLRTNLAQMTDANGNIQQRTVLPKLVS
Description: as §1, §2

ROCK2 = ROCK2 (Homo sapiens, UniProt O75116); settings: ROCK2, 1 μM; read-out: % control
Description: as §1, §2

T1 sequence (P29597 589-875 limits assumed): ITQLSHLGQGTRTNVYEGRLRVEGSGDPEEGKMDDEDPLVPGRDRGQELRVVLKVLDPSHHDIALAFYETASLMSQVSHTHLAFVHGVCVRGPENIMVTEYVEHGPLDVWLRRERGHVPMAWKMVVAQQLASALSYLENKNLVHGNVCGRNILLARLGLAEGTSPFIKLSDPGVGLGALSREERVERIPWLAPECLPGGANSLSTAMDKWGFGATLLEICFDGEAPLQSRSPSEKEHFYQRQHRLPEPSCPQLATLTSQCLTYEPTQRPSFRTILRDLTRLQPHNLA
Chain of CAMK1B (Q6P2M8 whole entry): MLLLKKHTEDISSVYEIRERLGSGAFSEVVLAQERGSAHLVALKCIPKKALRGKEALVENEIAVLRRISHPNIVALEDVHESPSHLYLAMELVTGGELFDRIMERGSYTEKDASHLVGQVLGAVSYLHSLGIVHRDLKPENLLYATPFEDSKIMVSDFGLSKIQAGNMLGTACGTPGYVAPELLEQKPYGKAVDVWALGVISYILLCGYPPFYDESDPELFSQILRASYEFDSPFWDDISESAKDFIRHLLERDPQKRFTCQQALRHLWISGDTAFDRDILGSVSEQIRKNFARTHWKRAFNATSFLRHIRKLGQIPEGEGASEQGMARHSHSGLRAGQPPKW
Chain of PHKG1 (Q16816 whole entry): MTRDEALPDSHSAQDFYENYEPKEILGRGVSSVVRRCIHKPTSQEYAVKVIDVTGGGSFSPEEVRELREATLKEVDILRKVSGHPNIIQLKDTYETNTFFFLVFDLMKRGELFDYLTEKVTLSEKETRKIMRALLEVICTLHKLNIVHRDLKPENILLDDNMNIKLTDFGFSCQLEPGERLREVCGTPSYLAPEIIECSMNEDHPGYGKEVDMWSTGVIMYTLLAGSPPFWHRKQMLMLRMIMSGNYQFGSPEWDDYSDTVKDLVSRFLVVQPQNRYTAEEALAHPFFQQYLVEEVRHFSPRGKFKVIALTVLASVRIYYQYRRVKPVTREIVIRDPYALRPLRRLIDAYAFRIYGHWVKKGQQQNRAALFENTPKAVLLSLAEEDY
Chain of TGFBR2 (P37173 23-567): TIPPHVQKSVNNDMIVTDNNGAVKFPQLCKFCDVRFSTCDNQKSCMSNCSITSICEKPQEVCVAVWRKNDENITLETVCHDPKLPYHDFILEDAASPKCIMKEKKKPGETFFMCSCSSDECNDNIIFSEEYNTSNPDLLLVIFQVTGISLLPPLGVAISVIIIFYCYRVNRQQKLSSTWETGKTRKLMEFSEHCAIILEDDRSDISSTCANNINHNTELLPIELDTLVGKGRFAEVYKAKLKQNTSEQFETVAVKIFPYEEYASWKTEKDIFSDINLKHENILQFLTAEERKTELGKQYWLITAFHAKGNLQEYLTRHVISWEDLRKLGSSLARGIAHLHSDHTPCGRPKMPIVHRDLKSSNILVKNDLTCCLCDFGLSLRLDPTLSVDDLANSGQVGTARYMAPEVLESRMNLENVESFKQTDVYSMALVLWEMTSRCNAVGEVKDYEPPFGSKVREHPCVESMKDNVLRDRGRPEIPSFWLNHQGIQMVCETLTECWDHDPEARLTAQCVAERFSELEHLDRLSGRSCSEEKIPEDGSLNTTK
Chain of FAK (Q05397 whole entry): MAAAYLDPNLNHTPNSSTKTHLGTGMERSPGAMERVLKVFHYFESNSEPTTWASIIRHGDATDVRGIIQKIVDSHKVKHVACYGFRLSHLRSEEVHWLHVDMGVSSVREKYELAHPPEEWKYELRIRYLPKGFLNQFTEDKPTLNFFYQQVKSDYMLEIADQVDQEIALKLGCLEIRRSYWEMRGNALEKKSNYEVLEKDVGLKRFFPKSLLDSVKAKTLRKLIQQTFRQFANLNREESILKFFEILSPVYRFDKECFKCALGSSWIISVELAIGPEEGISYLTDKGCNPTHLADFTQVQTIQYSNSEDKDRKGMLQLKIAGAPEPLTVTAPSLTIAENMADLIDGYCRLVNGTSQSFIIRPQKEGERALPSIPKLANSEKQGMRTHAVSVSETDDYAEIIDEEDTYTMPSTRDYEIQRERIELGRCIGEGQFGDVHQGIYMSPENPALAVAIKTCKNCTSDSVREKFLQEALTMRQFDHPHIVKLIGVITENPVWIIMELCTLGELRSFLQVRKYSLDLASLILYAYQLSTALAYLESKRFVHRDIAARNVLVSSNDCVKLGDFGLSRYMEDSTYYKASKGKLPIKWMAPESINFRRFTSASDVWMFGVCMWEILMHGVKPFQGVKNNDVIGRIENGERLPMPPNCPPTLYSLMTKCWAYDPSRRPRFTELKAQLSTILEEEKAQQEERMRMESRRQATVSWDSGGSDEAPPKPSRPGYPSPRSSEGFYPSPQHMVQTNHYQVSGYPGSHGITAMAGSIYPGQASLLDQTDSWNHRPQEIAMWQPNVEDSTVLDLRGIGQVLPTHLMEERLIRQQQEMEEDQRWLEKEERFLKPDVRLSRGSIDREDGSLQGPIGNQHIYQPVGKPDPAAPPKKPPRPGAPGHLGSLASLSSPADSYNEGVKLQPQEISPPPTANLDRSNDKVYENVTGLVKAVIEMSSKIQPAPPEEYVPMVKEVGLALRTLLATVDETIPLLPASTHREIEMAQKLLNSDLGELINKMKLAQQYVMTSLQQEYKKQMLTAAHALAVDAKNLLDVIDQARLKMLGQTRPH
Chain of CAMK1 (Q14012 whole entry): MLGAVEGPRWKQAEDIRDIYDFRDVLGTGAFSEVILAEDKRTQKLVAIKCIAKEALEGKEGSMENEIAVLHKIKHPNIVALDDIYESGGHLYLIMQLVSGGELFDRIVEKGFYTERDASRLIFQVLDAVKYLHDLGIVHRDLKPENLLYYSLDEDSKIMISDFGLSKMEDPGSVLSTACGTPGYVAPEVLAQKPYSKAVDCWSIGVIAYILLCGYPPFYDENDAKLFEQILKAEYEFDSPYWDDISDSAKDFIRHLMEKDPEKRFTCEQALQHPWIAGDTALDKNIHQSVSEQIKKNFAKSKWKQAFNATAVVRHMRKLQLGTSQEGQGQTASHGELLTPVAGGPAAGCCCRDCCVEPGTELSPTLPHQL
T4 sequence (O00238 14-502): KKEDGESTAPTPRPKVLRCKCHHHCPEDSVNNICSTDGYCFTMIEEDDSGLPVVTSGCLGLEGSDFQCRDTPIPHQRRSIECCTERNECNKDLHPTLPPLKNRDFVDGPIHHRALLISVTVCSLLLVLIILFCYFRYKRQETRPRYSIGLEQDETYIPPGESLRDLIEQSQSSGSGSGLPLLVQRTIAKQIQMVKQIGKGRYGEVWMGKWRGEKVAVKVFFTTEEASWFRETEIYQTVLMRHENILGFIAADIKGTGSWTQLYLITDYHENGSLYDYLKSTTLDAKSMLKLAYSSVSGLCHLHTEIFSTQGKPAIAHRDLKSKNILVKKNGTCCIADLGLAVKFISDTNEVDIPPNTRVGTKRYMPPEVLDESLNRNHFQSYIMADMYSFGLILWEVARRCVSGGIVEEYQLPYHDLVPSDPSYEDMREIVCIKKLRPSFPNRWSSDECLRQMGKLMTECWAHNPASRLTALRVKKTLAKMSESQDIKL
Chain of ROCK2 (O75116 whole entry): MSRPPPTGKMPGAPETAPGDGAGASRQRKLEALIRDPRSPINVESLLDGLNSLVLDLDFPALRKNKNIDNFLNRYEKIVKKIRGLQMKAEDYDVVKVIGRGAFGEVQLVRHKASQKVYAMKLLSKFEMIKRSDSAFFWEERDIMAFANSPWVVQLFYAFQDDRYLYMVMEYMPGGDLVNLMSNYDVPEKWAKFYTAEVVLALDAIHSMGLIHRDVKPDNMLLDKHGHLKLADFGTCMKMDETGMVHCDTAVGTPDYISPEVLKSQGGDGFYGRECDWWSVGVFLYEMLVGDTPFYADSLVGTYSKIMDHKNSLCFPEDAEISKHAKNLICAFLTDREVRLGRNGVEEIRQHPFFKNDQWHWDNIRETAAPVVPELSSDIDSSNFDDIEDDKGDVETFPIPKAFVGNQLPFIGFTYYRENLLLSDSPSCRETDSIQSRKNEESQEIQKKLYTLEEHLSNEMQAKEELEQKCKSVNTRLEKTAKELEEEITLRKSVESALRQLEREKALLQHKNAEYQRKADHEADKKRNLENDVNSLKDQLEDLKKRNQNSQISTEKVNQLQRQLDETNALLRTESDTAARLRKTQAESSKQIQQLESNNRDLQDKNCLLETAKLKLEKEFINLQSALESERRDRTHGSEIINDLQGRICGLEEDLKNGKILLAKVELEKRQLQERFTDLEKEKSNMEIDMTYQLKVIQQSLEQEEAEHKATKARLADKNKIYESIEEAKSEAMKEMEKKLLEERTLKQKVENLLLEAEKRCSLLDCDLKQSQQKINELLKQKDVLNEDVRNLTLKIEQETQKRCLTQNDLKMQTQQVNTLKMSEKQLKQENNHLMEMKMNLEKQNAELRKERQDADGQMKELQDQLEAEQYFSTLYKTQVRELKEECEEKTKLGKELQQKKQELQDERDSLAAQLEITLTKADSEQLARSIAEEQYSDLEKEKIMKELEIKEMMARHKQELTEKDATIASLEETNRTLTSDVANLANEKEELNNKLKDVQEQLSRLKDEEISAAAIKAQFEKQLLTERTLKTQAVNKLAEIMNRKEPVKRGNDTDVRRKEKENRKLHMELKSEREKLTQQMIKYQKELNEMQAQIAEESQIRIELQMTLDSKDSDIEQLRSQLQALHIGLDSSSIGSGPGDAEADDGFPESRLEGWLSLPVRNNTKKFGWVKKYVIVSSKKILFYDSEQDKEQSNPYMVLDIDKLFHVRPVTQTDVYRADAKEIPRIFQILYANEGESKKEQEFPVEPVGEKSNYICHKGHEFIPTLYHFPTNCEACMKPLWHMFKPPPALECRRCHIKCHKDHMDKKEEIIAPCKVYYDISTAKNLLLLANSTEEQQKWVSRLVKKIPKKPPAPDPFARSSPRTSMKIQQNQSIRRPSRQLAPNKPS

SMILES | remaining binding at 1 µM (TGFBR2) [%] | remaining binding at 1 µM [1] [%] | remaining binding at 1 µM (PHKG1) [%] | remaining binding at 1 µM (CAMK1) [%] | remaining binding at 1 µM (HIPK3) [%] | remaining binding at 1 µM (PIP5K2C) [%] | remaining binding at 1 µM (FAK) [%] | remaining binding at 1 µM (CAMK1B) [%] | remaining binding at 1 µM (TBK1) [%] | remaining binding at 1 µM (BMPR1B) [%] | remaining binding at 1 µM (DYRK2) [%] | remaining binding at 1 µM (ROCK2) [%]
O=C(c1ccc(-c2cnc3[nH]cc(Cl)c3c2NC2CCCC2)cc1)N1CCC(N2CCOCC2)CC1 [Compound 101, (4-(3-chloro-4-(cyclopentylamino)-1H-pyrrolo[2,3-b]pyridin-5-yl)phenyl)(4-morpholinopiperidin-1-yl)methanone] | 100 | 100 | 87 | 98 | 100 | 77 | 71 | 69 | 90 | 95 | 100 | 81
CNc1c(-c2cnn([C@H]3CCN(C(C)=O)C[C@@H]3F)c2)cnc2[nH]cc(Cl)c12 [Compound 77, 1-((3S,4S)-4-(4-(3-chloro-4-(methylamino)-1H-pyrrolo[2,3-b]pyridin-5-yl)-1H-pyrazol-1-yl)-3-fluoropiperidin-1-yl)ethan-1-one] | 100 | 84 | 100 | 84 | 85 | 93 | 90 | 74 | 57 | 47 | 49 | 8.9
CNc1c(-c2ccc(C(=O)N3CCC(N4CCOCC4)CC3)cc2)cnc2[nH]cc(Cl)c12 [Compound 96, (4-(3-chloro-4-(methylamino)-1H-pyrrolo[2,3-b]pyridin-5-yl)phenyl)(4-morpholinopiperidin-1-yl)methanone] | 100 | 89 | 86 | 87 | 79 | 63 | 65 | 87 | 91 | 54 | 12 | 1.4
